Experimental data published in patent publication US8952024B2, “Herbicidal pyrimidone derivatives” (E I du Pont de Nemours and Company, priority 2009, dated 2015).

Legend:
Format in all cases: in vivo
rice (Oryza sativa) = assay: Test B flooded paddy test; settings: for Plant response rating, Flood, Rice: 250 g ai/ha, flooded paddy test, visual rating on 0 to 100 scale (0 no effect, 100 complete control) after 13 to 15 days; for Plant response rating, Rice: Flood (flooded paddy test), 13 to 15 days
Summary of the method: (§1)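 Greenhouse-held for 13 to 15 days, treated pots were compared visually with controls and scored 0–100 (0, no effect). Treatment had been made into paddy water kept at 3 cm above the soil, with plants at the 2-leaf stage.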

[1] = system: barnyardgrass (Echinochloa crus-galli); assay: Test B flooded paddy test; settings: for Plant response rating, Flood, Barnyardgrass: 250 g ai/ha, flooded paddy test, visual rating on 0 to 100 scale (0 no effect, 100 complete control) after 13 to 15 days; for Plant response rating, Barnyardgrass: Flood (flooded paddy test), 13 to 15 days
Summary of the method: as §1

[2] = system: ducksalad (Heteranthera limosa); assay: Test B flooded paddy test; settings: for Plant response rating, Flood, Ducksalad: 250 g ai/ha, flooded paddy test, visual rating on 0 to 100 scale (0 no effect, 100 complete control) after 13 to 15 days; for Plant response rating, Ducksalad: Flood (flooded paddy test), 13 to 15 days
Summary of the method: as §1

[3] = system: umbrella sedge (Cyperus difformis); assay: Test B flooded paddy test; settings: for Plant response rating, Flood, Sedge, Umbrella: 250 g ai/ha, flooded paddy test, visual rating on 0 to 100 scale (0 no effect, 100 complete control) after 13 to 15 days; for Plant response rating, Sedge, Umbrella: Flood (flooded paddy test), 13 to 15 days
Summary of the method: as §1

[4] = system: morningglory (Ipomoea spp.); assay: Test A pre-/postemergence plant response; settings: for Morningglory plant response rating: visual injury, 0 to 100 scale (0 no effect, 100 complete control), approx. ten days
Summary of the method: (§2)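 Visual injury rating on a 0–100 scale (0 = no effect, 100 = complete control) was made versus untreated controls after about ten days in the greenhouse. Compounds, formulated in a non-phytotoxic solvent mix containing surfactant, were sprayed preemergence onto loam/sand soil and postemergence onto one- to two-leaf plants.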

[5] = system: giant foxtail (Setaria faberii); assay: Test A pre-/postemergence plant response; settings: for Foxtail, Giant plant response rating: visual injury, 0 to 100 scale (0 no effect, 100 complete control), approx. ten days
Summary of the method: as §2

corn (Zea mays) = assay: Test A pre-/postemergence plant response; settings: for Corn plant response rating: visual injury, 0 to 100 scale (0 no effect, 100 complete control), approx. ten days
Summary of the method: as §2

[6] = system: large crabgrass (Digitaria sanguinalis); assay: Test A pre-/postemergence plant response; settings: for Crabgrass, Large plant response rating: visual injury, 0 to 100 scale (0 no effect, 100 complete control), approx. ten days
Summary of the method: as §2

[7] = system: barnyardgrass (Echinochloa crus-galli); assay: Test A pre-/postemergence plant response; settings: for Barnyardgrass plant response rating: visual injury, 0 to 100 scale (0 no effect, 100 complete control), approx. ten days
Summary of the method: as §2

[8] = system: pigweed (Amaranthus retroflexus); assay: Test A pre-/postemergence plant response; settings: for Pigweed plant response rating: visual injury, 0 to 100 scale (0 no effect, 100 complete control), approx. ten days
Summary of the method: as §2

[9] = system: wheat (Triticum aestivum); assay: Test A pre-/postemergence plant response; settings: for Wheat plant response rating: visual injury, 0 to 100 scale (0 no effect, 100 complete control), approx. ten days
Summary of the method: as §2

[10] = system: velvetleaf (Abutilon theophrasti); assay: Test A pre-/postemergence plant response; settings: for Velvetleaf plant response rating: visual injury, 0 to 100 scale (0 no effect, 100 complete control), approx. ten days
Summary of the method: as §2

[11] = 62 g ai/ha, scale of 0 to 100 where 0 is no effect and 100 is complete control
[12] = 125 g ai/ha, scale 0 to 100, 0 is no effect, 100 is complete control
[13] = Flood, 31 g ai/ha, scale 0 to 100 (0 no effect, 100 complete control)
[14] = Postemergence, 125 g ai/ha, 0 to 100 scale where 0 is no effect and 100 is complete control
[15] = Preemergence, 125 g ai/ha, 0 to 100 scale, 0 = no effect, 100 = complete control
[16] = Preemergence, 500 g ai/ha, 0 to 100 scale, 0 = no effect, 100 = complete control

CCCn1c(-c2ccco2)ncc(C(=O)C2=C(O)C3CCC(C3)C2=O)c1=O (stereo not drawn) [Compound 230]
Plant response rating, Flood, Rice (rice (Oryza sativa)): 45
Plant response rating, Rice (rice (Oryza sativa); [11]): 20
Plant response rating, Rice (rice (Oryza sativa); [12]): 30
Rice plant response rating (rice (Oryza sativa); [13]): 0
Plant response rating, Flood, Barnyardgrass [1]: 40
Plant response rating, Barnyardgrass [1, 11]: 0
Plant response rating, Barnyardgrass [1, 12]: 20
Barnyardgrass plant response rating [1, 13]: 0
Plant response rating, Flood, Ducksalad [2]: 0
Plant response rating, Ducksalad [2, 11]: 0
Plant response rating, Ducksalad [2, 12]: 0
Ducksalad plant response rating [2, 13]: 0
Plant response rating, Flood, Sedge, Umbrella [3]: 75
Plant response rating, Sedge, Umbrella [3, 11]: 30
Plant response rating, Sedge, Umbrella [3, 12]: 40
Sedge, Umbrella plant response rating [3, 13]: 0
Plant response rating, Morningglory [4, 14]: 70
Morningglory plant response rating ([4]; Postemergence, 500 g ai/ha): 90
Plant response rating, Morningglory [4, 15]: 0
Plant response rating, Morningglory [4, 16]: 20
Plant response rating, Foxtail, Giant [5, 14]: 30
Foxtail, Giant plant response rating ([5]; Postemergence, 500 g ai/ha): 50
Plant response rating, Foxtail, Giant [5, 15]: 40
Plant response rating, Foxtail, Giant [5, 16]: 50
Plant response rating, Corn (corn (Zea mays); [14]): 0
Corn plant response rating (corn (Zea mays); Postemergence, 500 g ai/ha): 20
Plant response rating, Corn (corn (Zea mays); [15]): 0
Plant response rating, Corn (corn (Zea mays); [16]): 0
Plant response rating, Crabgrass, Large [6, 14]: 80
Crabgrass, Large plant response rating ([6]; Postemergence, 500 g ai/ha): 90
Plant response rating, Crabgrass, Large [6, 15]: 30
Plant response rating, Crabgrass, Large [6, 16]: 90
Plant response rating, Barnyardgrass [7, 14]: 70
Barnyardgrass plant response rating ([7]; Postemergence, 500 g ai/ha): 90
Plant response rating, Barnyardgrass [7, 15]: 10
Plant response rating, Barnyardgrass [7, 16]: 80
Plant response rating, Pigweed [8, 14]: 80
Pigweed plant response rating ([8]; Postemergence, 500 g ai/ha): 90
Plant response rating, Pigweed [8, 16]: 80
Plant response rating, Wheat [9, 14]: 0
Wheat plant response rating ([9]; Postemergence, 500 g ai/ha): 0
Plant response rating, Wheat [9, 15]: 0
Plant response rating, Wheat [9, 16]: 0
Plant response rating, Velvetleaf [10, 14]: 100
Velvetleaf plant response rating ([10]; Postemergence, 500 g ai/ha): 100
Plant response rating, Velvetleaf [10, 15]: 60
Plant response rating, Velvetleaf [10, 16]: 80

CCCCn1c(-c2cccc(C)c2)ncc(C(=O)C2=C(O)C3CCC(C3)C2=O)c1=O (stereo not drawn) [Compound 232]
Plant response rating, Flood, Rice (rice (Oryza sativa)): 0
Plant response rating, Rice (rice (Oryza sativa); [11]): 0
Plant response rating, Flood, Barnyardgrass [1]: 50
Plant response rating, Barnyardgrass [1, 11]: 30
Plant response rating, Flood, Ducksalad [2]: 85
Plant response rating, Ducksalad [2, 11]: 85
Plant response rating, Flood, Sedge, Umbrella [3]: 80
Plant response rating, Sedge, Umbrella [3, 11]: 80
Plant response rating, Morningglory [4, 14]: 100
Morningglory plant response rating ([4]; Postemergence, 500 g ai/ha): 100
Plant response rating, Morningglory [4, 15]: 0
Plant response rating, Morningglory [4, 16]: 40
Plant response rating, Foxtail, Giant [5, 14]: 60
Foxtail, Giant plant response rating ([5]; Postemergence, 500 g ai/ha): 90
Plant response rating, Foxtail, Giant [5, 15]: 0
Plant response rating, Foxtail, Giant [5, 16]: 70
Plant response rating, Corn (corn (Zea mays); [14]): 10
Corn plant response rating (corn (Zea mays); Postemergence, 500 g ai/ha): 60
Plant response rating, Corn (corn (Zea mays); [15]): 0
Plant response rating, Corn (corn (Zea mays); [16]): 0
Plant response rating, Crabgrass, Large [6, 14]: 20
Crabgrass, Large plant response rating ([6]; Postemergence, 500 g ai/ha): 60
Plant response rating, Crabgrass, Large [6, 15]: 10
Plant response rating, Crabgrass, Large [6, 16]: 40
Plant response rating, Barnyardgrass [7, 14]: 60
Barnyardgrass plant response rating ([7]; Postemergence, 500 g ai/ha): 90
Plant response rating, Barnyardgrass [7, 15]: 0
Plant response rating, Barnyardgrass [7, 16]: 50
Plant response rating, Pigweed [8, 14]: 70
Pigweed plant response rating ([8]; Postemergence, 500 g ai/ha): 90
Plant response rating, Pigweed [8, 15]: 0
Plant response rating, Pigweed [8, 16]: 90
Plant response rating, Wheat [9, 14]: 20
Wheat plant response rating ([9]; Postemergence, 500 g ai/ha): 50
Plant response rating, Wheat [9, 15]: 0
Plant response rating, Wheat [9, 16]: 30
Plant response rating, Velvetleaf [10, 14]: 70
Velvetleaf plant response rating ([10]; Postemergence, 500 g ai/ha): 80
Plant response rating, Velvetleaf [10, 15]: 0
Plant response rating, Velvetleaf [10, 16]: 60
